According to the supplement of paper PMC10307832:

What was measured:
Assay in all cases: relative viability (nuclei count vs DMSO), 5 days (fraction); higher = more cells survive
[1] = compound: Cc1ccc(NC(=O)c2ccc(CN3CCN(C)CC3)cc2)cc1Nc1nc(-c2cccnc2)cs1 [Masitinib] + Cc1nc(Nc2ncc(C(=O)Nc3c(C)cccc3Cl)s2)cc(N2CCN(CCO)CC2)n1 [Dasatinib] (partner 0.075 µM)
Summary of the method: (§1)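 Lung cancer cell lines, seeded in 1536-well plates, were treated the following day by pin tool with a single drug or with five library-drug doses (not always all listed) in √10 steps on top of a fixed anchor-drug dose. Cells were fixed and nuclei stained in one step after 5 days, and nuclei were counted. Relative viability is the nuclei count for treated wells divided by that for vehicle wells, reported as medians of duplicate plates.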

[2] = compound: CC1=CC(=CC=C1)NC2=NC(=CS2)C3=CC=NC=C3 + Nc1ncn([C@H]2C[C@H](O)[C@@H](CO)O2)c(=O)n1 [Decitabine] (partner 2 µM)
Summary of the method: as §1

[3] = compound: Cc1ccc(NC(=O)c2ccc(CN3CCN(C)CC3)cc2)cc1Nc1nc(-c2cccnc2)cs1 [Masitinib] + CCNC(=O)c1noc(-c2cc(C(C)C)c(O)cc2O)c1-c1ccc(CN2CCOCC2)cc1 [Luminespib] (partner 0.01 µM)
Summary of the method: as §1

[4] = compound: CC1=CC(=CC=C1)NC2=NC(=CS2)C3=CC=NC=C3 + CC(C)C[C@H](NC(=O)[C@H](Cc1ccccc1)NC(=O)c1cnccn1)B(O)O [Bortezomib] (partner 0.002 µM)
Summary of the method: as §1

With NCI-H1734 the relative viability ([1]; first compound 0.01 µM) was 0.449, the relative viability ([1]; first compound 0.03162 µM) was 0.521 and the relative viability ([1]; first compound 0.1 µM) was 0.508. It also gave a relative viability ([1]; first compound 0.3162 µM) of 0.518, a relative viability ([1]; first compound 1 µM) of 0.416 and a relative viability ([2]; first compound 0.08 µM) of 0.446. It also gave a relative viability ([2]; first compound 0.253 µM) of 0.417, a relative viability ([2]; first compound 0.8 µM) of 0.457 and a relative viability ([2]; first compound 2.53 µM) of 0.507. For the same cell line, the relative viability ([2]; first compound 8 µM) was 0.463, the relative viability ([3]; first compound 0.01 µM) was 0.194 and the relative viability ([3]; first compound 0.03162 µM) was 0.195. It also gave a relative viability ([3]; first compound 0.1 µM) of 0.188, a relative viability ([3]; first compound 0.3162 µM) of 0.187 and a relative viability ([3]; first compound 1 µM) of 0.172. The relative viability ([4]; first compound 0.08 µM) was 0.906, the relative viability ([4]; first compound 0.253 µM) was 0.874 and the relative viability ([4]; first compound 0.8 µM) was 0.941. For the same cell line, the relative viability ([4]; first compound 2.53 µM) was 0.919 and the relative viability ([4]; first compound 8 µM) was 0.36.
In the case of NCI-H1755, the relative viability ([1]; first compound 0.03162 µM) is reported as 0.455, the relative viability ([1]; first compound 0.1 µM) is reported as 0.451 and the relative viability ([1]; first compound 0.3162 µM) is reported as 0.422. For the same cell line, the relative viability ([1]; first compound 1 µM) was 0.383, the relative viability ([2]; first compound 0.08 µM) was 0.654 and the relative viability ([2]; first compound 0.253 µM) was 0.702. The relative viability ([2]; first compound 0.8 µM) was 0.701, the relative viability ([2]; first compound 2.53 µM) was 0.617 and the relative viability ([2]; first compound 8 µM) was 0.604. For the same cell line, the relative viability ([3]; first compound 0.03162 µM) was 0.528, the relative viability ([3]; first compound 0.1 µM) was 0.414 and the relative viability ([3]; first compound 0.3162 µM) was 0.697. It also gave a relative viability ([3]; first compound 1 µM) of 0.331, a relative viability ([4]; first compound 0.08 µM) of 0.937 and a relative viability ([4]; first compound 0.253 µM) of 0.886. The relative viability ([4]; first compound 0.8 µM) was 0.832, the relative viability ([4]; first compound 2.53 µM) was 0.819 and the relative viability ([4]; first compound 8 µM) was 0.572.
Cell Line NCI-H1792 has a relative viability ([1]; first compound 0.01 µM) of 0.757, a relative viability ([1]; first compound 0.03162 µM) of 0.342 and a relative viability ([1]; first compound 0.1 µM) of 0.83. It also gave a relative viability ([1]; first compound 0.3162 µM) of 0.718, a relative viability ([1]; first compound 1 µM) of 1.32 and a relative viability ([2]; first compound 0.08 µM) of 0.479. For the same cell line, the relative viability ([2]; first compound 0.253 µM) was 0.384, the relative viability ([2]; first compound 0.8 µM) was 0.481 and the relative viability ([2]; first compound 2.53 µM) was 0.548. It also gave a relative viability ([2]; first compound 8 µM) of 0.449, a relative viability ([3]; first compound 0.01 µM) of 0.341 and a relative viability ([3]; first compound 0.03162 µM) of 0.206. It also gave a relative viability ([3]; first compound 0.1 µM) of 0.41, a relative viability ([3]; first compound 0.3162 µM) of 0.397 and a relative viability ([3]; first compound 1 µM) of 0.402. The relative viability ([4]; first compound 0.08 µM) was 0.954, the relative viability ([4]; first compound 0.253 µM) was 0.75 and the relative viability ([4]; first compound 0.8 µM) was 0.784. For the same cell line, the relative viability ([4]; first compound 2.53 µM) was 0.81 and the relative viability ([4]; first compound 8 µM) was 0.898.
NCI-H1915 gave a relative viability ([1]; first compound 0.03162 µM) of 0.214, a relative viability ([1]; first compound 0.3162 µM) of 0.319 and a relative viability ([1]; first compound 1 µM) of 0.276. It also gave a relative viability ([2]; first compound 0.08 µM) of 0.244, a relative viability ([2]; first compound 0.253 µM) of 0.277 and a relative viability ([2]; first compound 0.8 µM) of 0.262. It also gave a relative viability ([2]; first compound 2.53 µM) of 0.276, a relative viability ([2]; first compound 8 µM) of 0.261 and a relative viability ([3]; first compound 0.03162 µM) of 0.815. It also gave a relative viability ([3]; first compound 0.3162 µM) of 0.938, a relative viability ([3]; first compound 1 µM) of 0.896 and a relative viability ([4]; first compound 0.08 µM) of 0.976. The relative viability ([4]; first compound 0.253 µM) was 0.973, the relative viability ([4]; first compound 0.8 µM) was 0.944 and the relative viability ([4]; first compound 2.53 µM) was 0.846. The relative viability ([4]; first compound 8 µM) was 0.762.
NCI-H1975 was tested, and the relative viability ([1]; first compound 0.01 µM) was 0.427, the relative viability ([1]; first compound 0.03162 µM) was 0.403 and the relative viability ([1]; first compound 0.1 µM) was 0.427. The relative viability ([1]; first compound 1 µM) was 0.279, the relative viability ([2]; first compound 0.08 µM) was 0.326 and the relative viability ([2]; first compound 0.253 µM) was 0.336. For the same cell line, the relative viability ([2]; first compound 0.8 µM) was 0.381, the relative viability ([2]; first compound 2.53 µM) was 0.356 and the relative viability ([2]; first compound 8 µM) was 0.245. It also gave a relative viability ([3]; first compound 0.01 µM) of 0.246, a relative viability ([3]; first compound 0.03162 µM) of 0.287 and a relative viability ([3]; first compound 0.1 µM) of 0.22. It also gave a relative viability ([3]; first compound 0.3162 µM) of 0.156, a relative viability ([3]; first compound 1 µM) of 0.124 and a relative viability ([4]; first compound 0.08 µM) of 0.361. For the same cell line, the relative viability ([4]; first compound 0.253 µM) was 0.352, the relative viability ([4]; first compound 0.8 µM) was 0.374 and the relative viability ([4]; first compound 2.53 µM) was 0.267. The relative viability ([4]; first compound 8 µM) was 0.171.
Work on NCI-H1993 yielded a relative viability ([1]; first compound 0.01 µM) of 0.554, a relative viability ([1]; first compound 0.03162 µM) of 0.508 and a relative viability ([1]; first compound 0.1 µM) of 0.577. For the same cell line, the relative viability ([1]; first compound 0.3162 µM) was 0.532, the relative viability ([1]; first compound 1 µM) was 0.52 and the relative viability ([2]; first compound 0.08 µM) was 0.565. It also gave a relative viability ([2]; first compound 0.253 µM) of 0.561, a relative viability ([2]; first compound 0.8 µM) of 0.483 and a relative viability ([2]; first compound 2.53 µM) of 0.485. It also gave a relative viability ([2]; first compound 8 µM) of 0.502, a relative viability ([3]; first compound 0.01 µM) of 0.851 and a relative viability ([3]; first compound 0.03162 µM) of 0.791. For the same cell line, the relative viability ([3]; first compound 0.1 µM) was 0.701, the relative viability ([3]; first compound 0.3162 µM) was 0.7 and the relative viability ([3]; first compound 1 µM) was 0.766. For the same cell line, the relative viability ([4]; first compound 0.08 µM) was 1, the relative viability ([4]; first compound 0.253 µM) was 1.03 and the relative viability ([4]; first compound 0.8 µM) was 0.885. For the same cell line, the relative viability ([4]; first compound 2.53 µM) was 0.894 and the relative viability ([4]; first compound 8 µM) was 0.993.
Work on NCI-H2009 yielded a relative viability ([1]; first compound 0.01 µM) of 0.291, a relative viability ([1]; first compound 0.03162 µM) of 0.284 and a relative viability ([1]; first compound 0.1 µM) of 0.324. For the same cell line, the relative viability ([1]; first compound 0.3162 µM) was 0.283, the relative viability ([1]; first compound 1 µM) was 0.244 and the relative viability ([2]; first compound 0.08 µM) was 0.342. For the same cell line, the relative viability ([2]; first compound 0.253 µM) was 0.425, the relative viability ([2]; first compound 0.8 µM) was 0.385 and the relative viability ([2]; first compound 2.53 µM) was 0.411. It also gave a relative viability ([2]; first compound 8 µM) of 0.376, a relative viability ([3]; first compound 0.01 µM) of 0.969 and a relative viability ([3]; first compound 0.03162 µM) of 0.938. The relative viability ([3]; first compound 0.1 µM) was 1.03, the relative viability ([3]; first compound 0.3162 µM) was 1 and the relative viability ([3]; first compound 1 µM) was 1.06. The relative viability ([4]; first compound 0.08 µM) was 0.829, the relative viability ([4]; first compound 0.253 µM) was 0.894 and the relative viability ([4]; first compound 0.8 µM) was 1.04. It also gave a relative viability ([4]; first compound 2.53 µM) of 1 and a relative viability ([4]; first compound 8 µM) of 0.724.
Cell Line NCI-H2023 has a relative viability ([1]; first compound 0.01 µM) of 0.551, a relative viability ([1]; first compound 0.03162 µM) of 0.602 and a relative viability ([1]; first compound 0.1 µM) of 0.543. The relative viability ([1]; first compound 0.3162 µM) was 0.395, the relative viability ([1]; first compound 1 µM) was 0.513 and the relative viability ([2]; first compound 0.08 µM) was 0.239. It also gave a relative viability ([2]; first compound 0.253 µM) of 0.223, a relative viability ([2]; first compound 0.8 µM) of 0.245 and a relative viability ([2]; first compound 2.53 µM) of 0.203. For the same cell line, the relative viability ([2]; first compound 8 µM) was 0.216, the relative viability ([3]; first compound 0.01 µM) was 0.61 and the relative viability ([3]; first compound 0.03162 µM) was 0.664. For the same cell line, the relative viability ([3]; first compound 0.1 µM) was 0.786, the relative viability ([3]; first compound 0.3162 µM) was 0.69 and the relative viability ([3]; first compound 1 µM) was 0.753. It also gave a relative viability ([4]; first compound 0.08 µM) of 0.899, a relative viability ([4]; first compound 0.253 µM) of 0.873 and a relative viability ([4]; first compound 0.8 µM) of 0.959. For the same cell line, the relative viability ([4]; first compound 2.53 µM) was 0.949 and the relative viability ([4]; first compound 8 µM) was 0.543.
For NCI-H2085, the relative viability ([1]; first compound 0.01 µM) was 0.215, the relative viability ([1]; first compound 0.03162 µM) was 0.249 and the relative viability ([1]; first compound 0.1 µM) was 0.242. The relative viability ([1]; first compound 0.3162 µM) was 0.278, the relative viability ([1]; first compound 1 µM) was 0.215 and the relative viability ([2]; first compound 0.08 µM) was 0.479. The relative viability ([2]; first compound 0.253 µM) was 0.532, the relative viability ([2]; first compound 0.8 µM) was 0.504 and the relative viability ([2]; first compound 2.53 µM) was 0.452. The relative viability ([2]; first compound 8 µM) was 0.457, the relative viability ([3]; first compound 0.01 µM) was 0.368 and the relative viability ([3]; first compound 0.03162 µM) was 0.428. It also gave a relative viability ([3]; first compound 0.1 µM) of 0.423, a relative viability ([3]; first compound 0.3162 µM) of 0.403 and a relative viability ([3]; first compound 1 µM) of 0.443. The relative viability ([4]; first compound 0.08 µM) was 1.02, the relative viability ([4]; first compound 0.253 µM) was 1.07 and the relative viability ([4]; first compound 0.8 µM) was 1.06. It also gave a relative viability ([4]; first compound 2.53 µM) of 0.94 and a relative viability ([4]; first compound 8 µM) of 0.574.
